Reference: US8378085B2, “Bacterial ATP synthase binding domain” (priority 2004, dated 2013)

The compounds below were run on DARQ J mutant M. tuberculosis.
Type: cell-based, Mycobacterium tuberculosis

Row | SMILES | effect on ATP production (total cellular ATP)
1 | COc1nc2ccc(Br)cc2cc1[C@@H](c1ccccc1)[C@@](O)(CCN(C)C)c1cccc2ccccc12 [J] | did not show any decrease
2 | C(=NC1CCCCC1)=NC1CCCCC1 [DCCD, reference compound] | able to block the ATP production

What follows are compounds tested on M. tuberculosis strains resistant to J.
Type: cell-based, Mycobacterium tuberculosis

Row | SMILES | sensitivity of M. tuberculosis strains resistant to J to the anti-TB agent
3 | NNC(=O)c1ccncc1 [isoniazid] | unchanged
4 | CC[C@@H](CO)NCCN[C@@H](CC)CO [ethambutol] | unchanged
5 | NCC[C@H](O)C(=O)N[C@@H]1C[C@H](N)[C@@H](O[C@H]2O[C@H](CN)[C@@H](O)[C@H](O)[C@H]2O)[C@H](O)[C@H]1O[C@H]1O[C@H](CO)[C@@H](O)[C@H](N)[C@H]1O [amikacin] | unchanged
6 | CO[C@H]1/C=C/O[C@@]2(C)Oc3c(C)c(O)c4c(O)c(c(/C=N/N5CCN(C)CC5)c(O)c4c3C2=O)NC(=O)/C(C)=C\C=C\[C@H](C)[C@H](O)[C@@H](C)[C@@H](O)[C@@H](C)[C@H](OC(C)=O)[C@@H]1C [rifampin] | unchanged
7 | [H]/N=C(/N)N[C@H]1[C@H](O)[C@@H](O)[C@H](O[C@@H]2O[C@@H](C)[C@](O)(C=O)[C@H]2O[C@@H]2O[C@@H](CO)[C@H](O)[C@@H](O)[C@@H]2NC)[C@@H](N/C(N)=N\[H])[C@@H]1O [streptomycin] | unchanged
